Data reported in patent publication US20220395465A1, “STING AGONIST COMPRISING EXOSOMES COMBINED WITH IL-12 DISPLAYING EXOSOMES FOR TREATING A TUMOUR” (CODIAK BIOSCIENCES, INC., priority 2019, published 2022).

Tested on: MC38 tumor
Assay: MC38 mouse tumor model, tumor growth, complete responses and rechallenge
Type: in vivo, mice
Details: equivalent IL-12 dose
Description: Potency was assessed in vitro using human PBMCs or murine splenocytes and in vivo using mouse subcutaneous tumor models. Local versus systemic pharmacology was determined with intratumoral injection in mice and subcutaneous injection in monkeys. All studies were benchmarked against recombinant IL-12 (rIL-12).
In addition, exoIL-12 administration led to enhanced intratumoral IFN-gamma AUC by about 4-fold as compared to recombinant IL-12 (FIG. 7B). […] This correlated with dose-dependent increases in tumor antigen-specific CD8+ T cells, which increased nearly 4-fold in exoIL-12 treated mice (FIG. 7E).
Suppression of tumor growth was again observed following MC38 rechallenge (FIG. 7D).

## rIL-12: recombinant IL-12, benchmark in all studies
  complete responses (share of mice): 0%
